In brackets after ≈: the same amount, converted by molar mass. Entries after “also recorded” stand apart in the source; their conditions may differ.
How the values were obtained:
immune response = assay: Immunomodulating activity (overall); type: cell-based
From the text: The following three assay procedures are used to evaluate the ability of the test substances to modulate the activity of several classes of cells in the immune system. In these systems it is possible to identify both immunopotentiating activity (evidence by an enhancement of the parameter examined) as well as immunosuppressant activity (evidenced by an inhibition of the parameter examined).
(§1) Table 4 above presents the results of an evaluation of a number of these subject compounds as potentiators of the immune response. Three different test systems were used. The first involves a measure of the ability of the test compound to enhance the ability of mouse lymphocytes to proliferate in response to a plant mitogen (Con A). The second involves measuring the ability of the test compounds to enhance human lymphocyte proliferation in response to a second plant mitogen (PHA). The third system measures the ability of these test substances to enhance macrophage proliferation in response to a natural lymphokine (MMF, Macrophage Mitogenic Factor).

guinea pig macrophages = assay: Lymphokine (MMF) induced guinea pig macrophage proliferation; type: cell-based; conditions: plus = immunostimulating, minus = immunoinhibiting, 0 = neither
Method: 3. The macrophage represents a subpopulation of white blood cells which is an important component of the immune system in control of both cellular and humoral immunity. The assay system described below evaluates the substances studied as potentiators of macrophage function.
Phytohemagglutinin (PHA) (HA-17) was purchased from Burroughs Wellcome. A preparation containing Macrophage Mitogen Factor (MMF) and Macrophage Activating Factor (MAF) was prepared from antigen-stimulated immune lymph node lymphocytes (guinea pig) as previously described by Hadden et al, Nature 257, 483-485 (1975). […] The active fraction was employed in both the proliferation and activation assays.
Ficoll-hypaque purified human peripheral blood lymphocytes were prepared and PHA-induced lymphocyte proliferation was assayed by the incorporation of tritiated thymidine as described in Hadden et al., Cell. Immunol. 20, 98-103 (1975). Each compound was analyzed in the presence of suboptimal, optimal and supraoptimal concentrations of PHA (0.001, 0.01, 0.1 units/ml respectively). Paraffin oil-induced guinea pig peritoneal macrophages were prepared and incubated as monolayer culture (>98% pure macrophages). Lymphokine (MMF)-induced proliferation was assayed by the incorporation of tritiated thymidine at 3 and 5 days of culture as described, Hadden et al, Nature 257, 483-485 (1975). Lymphokine (MAF)-induced macrophage activation to kill Listeria monocytogenes following 5 days of culture in the presence or absence of MAF was performed during a 6 hour period as described in Hadden and England, Immunopharmacology, pages 87-100 (Plenum Press, 1977). Phagocytosis was quantitated during a 20-minute exposure to Listeria monocytogenes by counting the number of macrophages containing bacteria and the number of bacteria per phagocytic cell on gram stained monolayers in Labtek chambers. Intracellular killing of bacteria was evaluated by counting the number of cells containing bacteria and the number of bacteria/cell 6 hours after the initial 20 minute exposure. Parallel experiments in which macrophages were lysed and intracellular bacteria were cultured confirm the validity of bacterial activity determined by this manner in this system. The drugs were employed in each of the three systems over serial log concentration range in triplicate in the presence and absence of mitogen or lymphokine. Each type of experiment was performed at least three times. Previous experiments indicate a parallelism of response to pharmacologic modulation in the proliferation and achivation assays.
as §1

L-1210 leukemic cells = assay: Anti-leukemic activity, inhibition of L-1210 growth; type: cell-based, mouse
Method: Anti-Leukemic Activity (Inhibition of L-1210 Growth)
Leukemic cells isolated from mice bearing the L-1210 tumor are cultured in vitro and their growth can be measured by counting the number of cells in the culture over a period of time. The incorporation of a test substance into the media will prevent the growth of the leukemic cells, an indication of an effective anti-leukemic agent.
I50 (concentration of drug inhibiting growth of L-1210) by % for the tested compounds was as follows:
To Measure Inhibition of Leukemic Cell (L-1210) Growth
Check to see that there is adequate cell growth in the stock cultures. Use cells 48-72 hours after transfers are done.
Weigh out the drugs at 50 times the desired final concentration and made serial dilutions.
Make up the final medium using 500 mls McCoy's 5A medium, 15% fetal calf serum, 5 mls penicillin-streptomycin solution, and 5 mls antibiotic-antimycotic solution and let it stand at room temperature.
Using sterile technique, add 0.1 ml of the drug dilutions to each tube.
Add an appropriate quantity of cells to the prepared medium. After mixing, remove a 0.5 ml sample, place it in a vial containing […] of saline, and count it on the Coulter Counter. Multiply the count by 40 to compensate for the 40 fold dilution (0.5 ml into […] and record the inoculum.
Add 5 mls of cell suspension to each tube. Swirl the bottle every 4 tubes to insure a more uniform distribution of cells.
Tighten the caps and place in the CO2 incubator at 36°-38° for 96 hours.
After 96 hours remove the tubes from the incubator and count the contents of each on the Coulter Counter. Multiply all counts by 40 and average the four counts for each drug dilution. If the count is less than the inoculum, record 100% inhibition. If the count is greater than the average of the eight control counts, record 0% inhibition. For all other counts use the following formula: [formula] 100%-% servival=inhibition of growth due to treatment.

spleen cells = assay: In vitro treatment of Con A stimulated mouse spleen cells; type: cell-based; conditions: for ability to augment Con A stimulation (in words): compound 1 μg/ml, Con A 5 μg/ml
Method: The following day, each group was sacrificed and the spleens removed and pooled. […] The cell concentration of each preparation was determined by a Coulter counter and adjusted to 5×10^6 cells/ml with RPMI medium.
Microtiter assays were carried out in 0.2 ml incubations, containing 5×10^5 cells and Con A or Con A and compounds at the indicated concentrations. All assays were performed with 6 replicates and compared with a blank assay containing only cells. The assay plates were incubated at 37° in 5% CO2 for 4 days. During the final 18-20 hours of incubation, 0.5 ml of ^3 HTdR (10 μCi/ml, 6 Ci /m mole) were added to each culture. The cultures were harvested with a multiple automatic sample harvester (MASH) unit and the incorporated ^3 HTdR determined with a Beckman LS 8000 liquid scintillation counter, as a measure of cell proliferation.

influenza virus = assay: Anti-influenza activity (overall); type: cell-based, several strains of A and B sub-types; conditions: for inhibit the replication of different strains of influenza virus (number of strains): concentrations ranging from 1-150 μg/ml
Toxicity in mice = conditions: for LD50: mouse, in vivo
[1] = salt compared with parent compound

SMILES	potentiation of the immune response (in words) (immune response)	Maximum Percent Change, Lymphokine Induced (MMF) Guinea Pig Mac. Prolif. (guinea pig macrophages; 1.0-10 (unit not given))	Maximum Percent Change, Lymphokine Induced (MMF) Guinea Pig Mac. Prolif. (guinea pig macrophages; .01-1.0 (unit not given))	IC50 (L-1210 leukemic cells; Mus musculus, L1210, tissue culture, read-out: 50% inhibition of L-1210 cells)	fold induction at 1 µg/mL (spleen cells; Mus musculus, 96 h, Con A 5 μg/l as printed, compound 1 μg/ml in vitro, read-out: stimulation over Con A alone)	ability to augment Con A stimulation (in words) (spleen cells)	anti-influenza activity (in words) (influenza virus; compound by itself)	inhibit the replication of different strains of influenza virus (number of strains) (influenza virus)	drug related mortality (Toxicity in mice; mice, doses of 1000 mg/kg)	Potentiation of immunopotentiation by DIP.PAcBA salt (immune response; [1])	I50 (concentration of drug inhibiting growth of L-1210) (L-1210 leukemic cells; 96 hours)	Potentiation Anti-Leukemia by DIP.PAcBA salt (L-1210 leukemic cells; [1])	50% inhibition of L-1210 cells (L-1210 leukemic cells; tissue culture)	stimulation over Con A alone (spleen cells; Con A 5 μg/l as printed, compound 1 μg/ml in vitro, 5760 min)	potentiation of anti-influenza activity by DIP.PAcBA salt (influenza virus)	LD50 (Toxicity in mice)	LD50 (Toxicity in mice; sc)
CCCCCC[C@H]([C@H](C)O)n1cnc2c(=O)[nH]cnc21 (relative stereo) [NPT 15392, ERYTHRO-9-(2-HYDROXY-3-NONYL)HYPOXANTHINE]	potentiation of the immune response has been observed	23%	33%	28 µg/mL (≈ 101 µM)	2.8	marked ability to augment the Con A stimulation	significant anti-influenza activity	at least 4 different strains	no drug related mortality was noted	–	–	–	–	–	–	–	–
CCCCCC[C@H]([C@H](C)O)n1cnc2c(=O)[nH]cnc21 (relative stereo) [NPT 15410]	potentiation of the immune response has been observed	23%	12%	–	–	marked ability to augment the Con A stimulation	–	at least 4 different strains	–	Yes	54 micrograms/ml	Yes	54 µg/mL	3.3 fold	does not potentiate the anti-influenza activity; also recorded: equally active	4300 mg/kg	4900 mg/kg
